Experimental findings from patent US20210100247A1, “HARMFUL ORGANISM CONTROL METHOD AND HARMFUL ORGANISM CONTROL COMPOSITION” (priority 2018, published 2021) are described below.

The subject of this series is Tetranychus urticae. The experiment in a line: whole plant or invertebrate. Particulars: for Corrected Adult Insect Mortality Rate Measured Value: adults, 3 days after spraying; for Effectiveness Measured Value: next generation survivors, 10 days after spraying. On the procedure:
Effecacy Confirmation Test on Tetranychus urticae
Eight or ten adult female Tetranychus urticae mites were inoculated on the kidney bean leaves placed in petri dishes on the day before treating with the chemical solutions.
A flowable agent containing the compound A was diluted with a solution obtained by diluting Rabiden 3S 5,000 times in water to prepare a chemical solution A containing the compound A in which the concentration of the compound A is twice the concentration shown in Tables 1 to 4.
A preparation product containing the compound B was diluted with a solution obtained by diluting Rabiden 3S 5,000 times in water to prepare a chemical solution B containing the compound B in which the concentration of the compound B is twice the concentration shown in Tables 1 to 4.
Test number a: Tebufenpyrad: Pyranica EW (manufactured by Nippon Soda Co., Ltd.) Test numbers b and h: Hexythiazox: Nissolan wettable powder (manufactured by Nippon Soda Co., Ltd.) Test number c: Fenpyroximate: Danitron flowable (manufactured by Nippon Pesticides Co., Ltd.) Test number d: Propargite: Omite wettable powder (manufactured by Nippon Pesticides Co., Ltd.) Test number e: Tolfenpyrad: Hachi-Hachi flowable (manufactured by OAT Agrio) Test number f: Abamectin: Agrimec (manufactured by Syngenta Japan) Test number g: Etoxazole: Baroque flowable (manufactured by Kyoyu Agri co., Ltd.) Test number i: Thiodicarb: Lavin wettable powder 75 (manufactured by Bayer Crop Science) Test number j: Spinosad: Spinoace granule wettable powder (Kumiai Chemical Industry Co., Ltd.) Test number k: Isoxathion: Carphos emulsion (manufactured by Nippon Soda Co., Ltd.) Test number l: Acetamiprid: Mospilan water-soluble agent (manufactured by Nippon Soda Co., Ltd.) Test number m: Fipronil: Prince flowable (manufactured by BASF) Test number n: Tralomethrin: Scout flowable agent (manufactured by Nippon Soda Co., Ltd.) Test number o: BT agent (live spore of Bacillus thuringiensis and crystal toxin produced): Zentari granule wettable powder (manufactured by Kitako Chemical Industry Co., Ltd.) Test number p: Buprofezin: Applaud flowable (manufactured by Nippon Pesticides Co., Ltd.) Test number q: Cyromazine: Triggered liquid (manufactured by Syngenta Japan) Test number r: Tebufenozide: Romdan Flowable (manufactured by Nippon Soda Co., Ltd.) Test number s: Flubendiamide: Phoenix granule wettable powder (Nippon Agricultural Co., Ltd.) Test number t: Pyridalyl: pleo flowable (manufactured by Kyoto Agri) Test number u: Lufenuron: Match emulsion (manufactured by Syngenta Japan) Test number v: Flonicamid: Ulala DF (made by Ishihara Bioscience) Test number w: Chlorfenapyr: Kotetsu Flowable (Nippon Pesticides Co., Ltd.) Test number x: Indoxacarb: Tornado flowable (made by Kumiai Chemical Industry Co., Ltd.) Test number y: Diafenthiuron: Gamba wettable powder (manufactured by Syngenta Japan) Test number z: Thiocyclam: Ebisect wettable powder (manufactured by Mitsui Chemicals Agro) Test number aa: Emamectin-benzoate: Affirm emulsion (Syndienta Japan) Test number ab: Pyridaben: Sanmite wettable powder (manufactured by Nissan Chemical Co., Ltd.)
A mixed solution obtained by mixing equal amounts of the chemical solution A and the chemical solution B was sprayed onto a petri dish containing kidney bean leaves inoculated with Tetranychus urticae mites at an amount of 2 mg per cm^2 using a rotary spray tower (AB mixed-component area).
The chemical solution A and the chemical solution B were each diluted 2-fold with a solution obtained by diluting Labiden 3S 5000 times in water to obtain a chemical solution A′ and a chemical solution B′.
The chemical solution A′ was sprayed onto another petri dish containing kidney bean leaves inoculated with Tetranychus urticae mites at an amount of 2 mg per cm^2 using a rotary spray tower (A single-component area).

The mark [1] stands for this setting: Tetranychus urticae, in Phaseolus vulgaris, 240 h, read-out: Effectiveness Measured Value.

Several values for one entry are separate records, joined by “and”; a condition that tells them apart may be missing. Equal values may be shown once.

In the case of `CC(C)c1cc(Oc2ccccc2)cc(C(C)C)c1NC(=S)NC(C)(C)C` [diafenthiuron], the pest or weed control at 25 µg/mL under setting [1] worked out at 7%.
For the molecule `CN(C)C1CSSSC1` [thiocyclam], the pest or weed control at 500 µg/mL under setting [1] came to 18%.
Turning to `N#CCNC(=O)c1cnccc1C(F)(F)F` [flonicamid], under “single component 100 ppm”, the “Corrected Adult Insect Mortality Rate Measured Value” is reported as 0% and the “Effectiveness Measured Value” amounted to 3%.
Turning to `CC(C)(C)c1ccc(CSc2cnn(C(C)(C)C)c(=O)c2Cl)cc1` [pyridaben], the pest or weed control at 200 µg/mL under setting [1] was 0%.
abamectin: under “single component 0.017 ppm”, the “Corrected Adult Insect Mortality Rate Measured Value” turned out to be 0% and the “Effectiveness Measured Value” was 11%.
In the case of `CCOP(=S)(OCC)Oc1cc(-c2ccccc2)on1` [isoxathion], the pest or weed control at 500 µg/mL under setting [1] stood at 50%.
Consider `FC(F)(F)c1ccc(OCCCOc2c(Cl)cc(OCC=C(Cl)Cl)cc2Cl)nc1` [pyridalyl], for which the pest or weed control at 100 µg/mL under setting [1] was determined as 11%.
With spinosad, where the note is “single component 40 ppm”, the “Corrected Adult Insect Mortality Rate Measured Value” amounted to 0% and the “Effectiveness Measured Value” is listed as 0%.
For the molecule `COC(=O)N(C(=O)N1CO[C@@]2(C(=O)OC)Cc3cc(Cl)ccc3C2=N1)c1ccc(OC(F)(F)F)cc1` [indoxacarb], for the setting “single component 50 ppm”, the “Corrected Adult Insect Mortality Rate Measured Value” came to 0% and the “Effectiveness Measured Value” turned out to be 0%.
Turning to `C/C(=N\C#N)N(C)Cc1ccc(Cl)nc1` [acetamiprid], the pest or weed control at 100 µg/mL under setting [1] was determined as 7%.
On the same count and under the same terms, the value for `Cc1cc(C(F)(C(F)(F)F)C(F)(F)F)ccc1NC(=O)c1cccc(I)c1C(=O)NC(C)(C)CS(C)(=O)=O` [flubendiamide] was 3%.
Turning to `CCCOc1cc(C(F)(F)F)ccc1O[C@H]1C[C@H]2CCC[C@@H](C1)N2Oc1ccc(C(F)(F)F)cn1` [acynonapyr, 3-endo-[2-propoxy-4-(trifluoromethyl)phenoxy]-9-[5-(trifluoromethyl)-2-pyridyloxy]-9-azabicyclo[3.3.1] nonan], the “Effectiveness Measured Value” (single component 2.0 ppm) was 49% and 51% and 60% and 68% and 46%.
For the molecule `CCOc1cc(C(C)(C)C)ccc1C1COC(c2c(F)cccc2F)=N1` (stereo not drawn) [etoxazole], the pest or weed control at 1.6 µg/mL under setting [1] was 85%.
Regarding `Cc1nn(C)c(Oc2ccccc2)c1C=NOCc1ccc(C(=O)OC(C)(C)C)cc1` [fenpyroximate], the pest or weed control at 50 µg/mL under setting [1] came out at 28%.
With `CCc1ccc(C(=O)NN(C(=O)c2cc(C)cc(C)c2)C(C)(C)C)cc1` [tebufenozide], the pest or weed control at 200 µg/mL under setting [1] was 10%.
In the case of `C#CCOS(=O)OC1CCCCC1Oc1ccc(C(C)(C)C)cc1` (stereo not drawn) [propargite], the pest or weed control at 40 µg/mL under setting [1] was 18%.
`CS/C(C)=N\OC(=O)N(C)SN(C)C(=O)O/N=C(\C)SC` [thiodicarb]: the pest or weed control at 750 µg/mL under setting [1] was found to be 0%.
`C[C@@H]1[C@@H](c2ccc(Cl)cc2)SC(=O)N1C(=O)NC1CCCCC1` [hexythiazox]: under setting [1], the pest or weed control at 1.6 µg/mL came to 42% and the pest or weed control at 12.5 µg/mL worked out at 90%.
For the molecule `Nc1nc(N)nc(NC2CC2)n1` [cyromazine], the pest or weed control at 87 µg/mL under setting [1] is 8%.
With `CCOCn1c(-c2ccc(Cl)cc2)c(C#N)c(Br)c1C(F)(F)F` [chlorfenapyr], the pest or weed control at 50 µg/mL under setting [1] stood at 46%.
Turning to `O=C(NC(=O)c1c(F)cccc1F)Nc1cc(Cl)c(OC(F)(F)C(F)C(F)(F)F)cc1Cl` (stereo not drawn) [lufenuron], the pest or weed control at 100 µg/mL under setting [1] is 14%.
On the same count and under the same terms, the figure for `CCc1nn(C)c(C(=O)NCc2ccc(C(C)(C)C)cc2)c1Cl` [tebufenpyrad] is 64%.
Consider `CCc1nn(C)c(C(=O)NCc2ccc(Oc3ccc(C)cc3)cc2)c1Cl` [tolfenpyrad], for which, under setting [1], the pest or weed control at 150 µg/mL was 4%.
On to `N#Cc1nn(-c2c(Cl)cc(C(F)(F)F)cc2Cl)c(N)c1[S+]([O-])C(F)(F)F` (stereo not drawn) [fipronil], for which the pest or weed control at 22 µg/mL under setting [1] was determined as 2%.
In the case of emamectin-benzoate, under “single component 0.02 ppm”, the “Corrected Adult Insect Mortality Rate Measured Value” amounted to 40% and the “Effectiveness Measured Value” was 17%.
Turning to `CC(C)N1C(=O)N(c2ccccc2)CS/C1=N\C(C)(C)C` [buprofezin], the pest or weed control at 200 µg/mL under setting [1] was 17%.
Take `CC1(C)[C@H](C(=O)O[C@H](C#N)c2cccc(Oc3ccccc3)c2)[C@@H]1C(Br)C(Br)(Br)Br` (stereo partly drawn) [tralomethrin]: the pest or weed control at 9.3 µg/mL under setting [1] is 1%.
